# Earlier results as cited in patent US20080153785A1, “Pharmaceutical Compositions Containing Biophosphonate for Improving Oral Absorption” (CHONG KUN DANG PHARMACEUTICAL CORP., priority 2005, published 2008).
# Settings: long-term treatment, normally taken
smiles,measurement,value
"NCCCC(O)(P(=O)(O)O)P(=O)(O)O [alendronate, 4-Amino-1-hydroxybutylidene-1,1-biphosphonate]",incidence of heartburn or epigastric pain,about 36 % of patients
